Data taken from US8071598B2, “3,9-diazabicyclo[3.3.1]nonane derivatives and their use as monoamine neurotransmitter re-uptake inhibitors” (Neurosearch A/S, priority 2006, dated 2011).
Counter-ions that a name gives are not always drawn. Like-named read-outs stand apart in the source and are kept apart here.

Legend:
[1] = target: T1, reuptake of serotonine (5-HT) in synaptosomes (Rattus norvegicus, UniProt P31652); experiment: Inhibition of serotonine (5-HT) reuptake in synaptosomes; type: biochemical
T1 construct: in synaptosomes as described in WO 97/16451; from tissue; host or cells: synaptosomes (brain tissue)
T1 sequence (P31652 whole entry): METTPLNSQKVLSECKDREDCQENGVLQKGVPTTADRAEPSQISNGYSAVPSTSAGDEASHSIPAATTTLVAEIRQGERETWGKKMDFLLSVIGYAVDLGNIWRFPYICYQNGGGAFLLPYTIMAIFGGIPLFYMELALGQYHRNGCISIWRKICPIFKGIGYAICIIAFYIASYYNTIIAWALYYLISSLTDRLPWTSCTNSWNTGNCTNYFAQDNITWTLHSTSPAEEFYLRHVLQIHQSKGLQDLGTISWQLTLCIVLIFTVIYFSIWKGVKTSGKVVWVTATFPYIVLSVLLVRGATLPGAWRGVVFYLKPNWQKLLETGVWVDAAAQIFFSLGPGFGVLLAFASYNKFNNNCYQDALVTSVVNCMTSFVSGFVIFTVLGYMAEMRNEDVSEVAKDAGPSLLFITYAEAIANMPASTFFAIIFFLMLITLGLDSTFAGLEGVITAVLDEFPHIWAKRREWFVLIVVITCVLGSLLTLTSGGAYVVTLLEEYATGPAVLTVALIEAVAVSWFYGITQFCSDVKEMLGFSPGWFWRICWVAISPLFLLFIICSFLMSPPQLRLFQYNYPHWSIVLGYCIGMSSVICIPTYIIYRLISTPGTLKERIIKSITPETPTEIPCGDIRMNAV
Method: A number of compounds were tested for their ability to inhibit the reuptake of the monoamine neurotransmitters dopamine (DA) noradrenaline (NA) and serotonine (5-HT) in synaptosomes as described in WO 97/16451.
The test values are given as IC50 (the concentration (μM) of the test substance which inhibits the specific binding of ^3H-DA, ^3H-NA, or ^3H-5-HT by 50%).

[2] = target: T2, reuptake of dopamine (DA) in synaptosomes (Rattus norvegicus, UniProt P23977); experiment: Inhibition of dopamine (DA) reuptake in synaptosomes; type: biochemical
T2 construct: in synaptosomes as described in WO 97/16451; from tissue; host or cells: synaptosomes (brain tissue)
T2 sequence (P23977 whole entry): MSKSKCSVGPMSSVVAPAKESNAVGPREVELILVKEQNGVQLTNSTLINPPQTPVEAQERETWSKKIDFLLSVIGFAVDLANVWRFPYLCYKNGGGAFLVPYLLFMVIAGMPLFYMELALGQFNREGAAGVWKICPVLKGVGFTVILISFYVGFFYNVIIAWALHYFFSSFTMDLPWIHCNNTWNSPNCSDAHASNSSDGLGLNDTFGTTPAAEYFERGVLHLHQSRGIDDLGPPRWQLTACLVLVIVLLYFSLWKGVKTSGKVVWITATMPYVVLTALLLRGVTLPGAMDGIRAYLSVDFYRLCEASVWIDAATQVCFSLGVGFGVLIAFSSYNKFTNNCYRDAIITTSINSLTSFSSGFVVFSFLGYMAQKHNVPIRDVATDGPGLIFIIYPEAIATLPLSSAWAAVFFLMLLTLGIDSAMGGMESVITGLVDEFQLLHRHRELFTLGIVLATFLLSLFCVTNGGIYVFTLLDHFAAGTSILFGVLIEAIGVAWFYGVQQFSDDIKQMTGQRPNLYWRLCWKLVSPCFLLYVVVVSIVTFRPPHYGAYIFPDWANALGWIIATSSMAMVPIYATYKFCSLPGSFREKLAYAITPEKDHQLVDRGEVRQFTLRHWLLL

[3] = target: T3, reuptake of noradrenaline (NA) in synaptosomes (Rattus norvegicus, UniProt Q63380); experiment: Inhibition of noradrenaline (NA) reuptake in synaptosomes; type: biochemical
T3 construct: in synaptosomes as described in WO 97/16451; from tissue; host or cells: synaptosomes (brain tissue)
T3 sequence (Q63380 1-617): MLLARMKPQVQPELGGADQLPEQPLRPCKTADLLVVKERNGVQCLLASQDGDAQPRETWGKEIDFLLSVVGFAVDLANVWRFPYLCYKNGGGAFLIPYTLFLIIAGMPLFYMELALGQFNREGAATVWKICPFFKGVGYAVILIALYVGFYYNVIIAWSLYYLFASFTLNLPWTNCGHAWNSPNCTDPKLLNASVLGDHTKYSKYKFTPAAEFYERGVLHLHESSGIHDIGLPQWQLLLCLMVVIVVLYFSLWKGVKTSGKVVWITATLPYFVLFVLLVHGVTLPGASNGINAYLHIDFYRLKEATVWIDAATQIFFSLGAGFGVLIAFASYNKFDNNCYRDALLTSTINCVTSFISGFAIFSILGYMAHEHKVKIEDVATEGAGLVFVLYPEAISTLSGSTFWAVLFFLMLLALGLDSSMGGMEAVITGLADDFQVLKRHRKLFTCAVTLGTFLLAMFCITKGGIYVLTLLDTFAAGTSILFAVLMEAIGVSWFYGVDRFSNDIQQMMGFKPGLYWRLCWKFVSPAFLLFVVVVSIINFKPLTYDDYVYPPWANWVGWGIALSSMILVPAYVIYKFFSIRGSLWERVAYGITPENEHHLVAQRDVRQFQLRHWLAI

Compound	IC50 [1]	IC50 [2]	IC50 ([3]; synaptosomes, 3H-NA, read-out: NA-uptake IC50)	melting point	IC50 ([2]; synaptosomes, 3H-DA, read-out: DA-uptake IC50)	IC50 [3]
CN1C2CCCC1CN(c1ccc3cc(O)ccc3c1)C2 [3rd compound of Method C, 6-(9-Methyl-3,9-diaza-bicyclo[3.3.1]non-3-yl)-naphthalen-2-ol]	7.9 nM	54 nM	110 nM			
Clc1ccc(N2CC3CCCC(C2)N3)cc1Cl (as salt: hydrochloric acid salt) [1st compound of Method B, 3-(3,4-Dichloro-phenyl)-3,9-diaza-bicyclo[3.3.1]nonane]				295.4 °C		
COc1ccc2cc(N3CC4CCCC(C3)N4C)ccc2c1 (as salt: fumaric acid salt) [1st compound of Method C, 3-(6-Methoxy-naphthalen-2-yl)-9-methyl-3,9-diaza-bicyclo[3.3.1]nonane]				190 to 198.3 °C		
COc1ccc2cc(N3CC4CCCC(C3)N4C)ccc2c1 [1st compound of Method C, 3-(6-Methoxy-naphthalen-2-yl)-9-methyl-3,9-diaza-bicyclo[3.3.1]nonane]	8.1 nM				230 nM	19 nM
Clc1ccc(N2CC3CCCC(C2)N3)cc1Cl [1st compound of Method B, 3-(3,4-Dichloro-phenyl)-3,9-diaza-bicyclo[3.3.1]nonane]	0.69 nM	160 nM				7.4 nM
